Conditions in all cases: Compound Concentration 10.0 uM, Hit No
The target of assay [1] is T1, Single-strand selective monofunctional uracil DNA glycosylase (Homo sapiens) (UniProt Q53HV7).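 Further: enzymatic SMUG1 assay coupled with APE1, reading fluorescence at 594 nm released when a quenched double-stranded DNA oligonucleotide substrate is cleaved and separated.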
T1 sequence (whole entry): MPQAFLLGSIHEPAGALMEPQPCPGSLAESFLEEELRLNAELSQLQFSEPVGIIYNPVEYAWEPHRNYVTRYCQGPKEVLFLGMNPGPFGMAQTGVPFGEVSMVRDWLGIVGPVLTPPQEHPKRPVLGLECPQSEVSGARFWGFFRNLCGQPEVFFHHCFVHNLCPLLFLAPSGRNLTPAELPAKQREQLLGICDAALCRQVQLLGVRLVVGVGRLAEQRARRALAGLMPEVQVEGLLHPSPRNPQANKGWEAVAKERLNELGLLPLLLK
Description: Inhibition of SMUG1 by quantifying inhibition of SMUG1-mediated cleavage and dissociation of quenched duplex DNA oligonucleotides, measured as fluorescence at 594 nm. To generate a functional strand incision and increase turn-over this assay is coupled to APE1.

Assay [2] has as its target G/T mismatch-specific thymine DNA glycosylase (Homo sapiens) (UniProt Q13569).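 Further: human TDG cleavage of quenched duplex DNA oligonucleotides coupled to APE1, strand release read as fluorescence at 594 nm, inhibition of TDG activity.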
Description: Inhibition of TDG by quantifying inhibition of TDG-mediated cleavage and dissociation of quenched duplex DNA oligonucleotides, measured as fluorescence at 594 nm. To generate a functional strand incision and increase turn-over this assay is coupled to APE1.
Assay [3] deals with Endonuclease 8-like 1 (Homo sapiens) (UniProt Q96FI4).
Chain of Endonuclease 8-like 1 (Homo sapiens) (Q96FI4 whole entry): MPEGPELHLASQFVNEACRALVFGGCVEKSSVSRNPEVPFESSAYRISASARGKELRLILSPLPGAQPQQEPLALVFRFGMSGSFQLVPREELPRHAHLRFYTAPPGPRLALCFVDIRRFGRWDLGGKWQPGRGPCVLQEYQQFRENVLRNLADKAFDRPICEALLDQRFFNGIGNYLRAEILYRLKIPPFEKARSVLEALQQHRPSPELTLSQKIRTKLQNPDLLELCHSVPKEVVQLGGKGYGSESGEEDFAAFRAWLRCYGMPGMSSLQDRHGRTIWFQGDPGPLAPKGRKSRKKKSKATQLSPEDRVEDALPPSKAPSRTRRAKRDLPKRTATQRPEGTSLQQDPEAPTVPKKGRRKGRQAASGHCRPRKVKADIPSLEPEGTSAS
Description: Inhibition of NEIL1 by quantifying inhibition of NEIL1-mediated cleavage and dissociation of quenched duplex DNA oligonucleotides, measured as fluorescence at 594 nm.
For assay [4], the target named is N-glycosylase/DNA lyase (Homo sapiens) (UniProt O15527).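 Further: OGG1 cleavage of a quenched duplex DNA oligonucleotide, coupled to APE1 for strand incision, read as fluorescence at 594 nm.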
Chain of N-glycosylase/DNA lyase (Homo sapiens) (O15527 whole entry): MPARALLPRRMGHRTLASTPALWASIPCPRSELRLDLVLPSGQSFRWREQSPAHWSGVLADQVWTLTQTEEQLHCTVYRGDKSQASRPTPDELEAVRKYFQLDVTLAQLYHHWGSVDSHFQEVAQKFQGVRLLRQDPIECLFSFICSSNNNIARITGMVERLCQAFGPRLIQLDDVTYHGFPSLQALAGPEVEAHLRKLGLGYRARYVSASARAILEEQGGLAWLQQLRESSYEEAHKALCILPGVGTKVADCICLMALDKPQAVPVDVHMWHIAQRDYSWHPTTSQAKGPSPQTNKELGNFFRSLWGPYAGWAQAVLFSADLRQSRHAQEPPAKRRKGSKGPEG
Description: Inhibition of OGG1 by quantifying inhibition of OGG1-mediated cleavage and dissociation of quenched duplex DNA oligonucleotides, measured as fluorescence at 594 nm. To generate a functional strand incision and increase turn-over this assay is coupled to APE1.
Assay [5] has as its target T2, Endonuclease III-like protein 1 (Homo sapiens) (UniProt P78549).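 Further: enzyme assay tracking NTHL1 cutting and release of a quenched double-stranded DNA oligo substrate, read as fluorescence at 594 nm.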
T2 sequence (whole entry): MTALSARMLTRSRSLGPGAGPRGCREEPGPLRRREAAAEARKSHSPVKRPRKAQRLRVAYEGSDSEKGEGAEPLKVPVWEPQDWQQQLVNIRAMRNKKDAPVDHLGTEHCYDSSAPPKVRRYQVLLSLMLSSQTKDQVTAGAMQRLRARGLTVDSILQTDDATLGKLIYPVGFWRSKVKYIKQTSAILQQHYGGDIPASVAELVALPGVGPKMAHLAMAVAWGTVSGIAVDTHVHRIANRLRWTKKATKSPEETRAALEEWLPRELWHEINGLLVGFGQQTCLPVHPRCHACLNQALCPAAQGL
Description: Inhibition of NTHL1 by quantifying inhibition of NTHL1-mediated cleavage and dissociation of quenched duplex DNA oligonucleotides, measured as fluorescence at 594 nm.

Assay [6] addresses T3, Adenine DNA glycosylase (Homo sapiens) (UniProt Q9UIF7).
T3 sequence (whole entry): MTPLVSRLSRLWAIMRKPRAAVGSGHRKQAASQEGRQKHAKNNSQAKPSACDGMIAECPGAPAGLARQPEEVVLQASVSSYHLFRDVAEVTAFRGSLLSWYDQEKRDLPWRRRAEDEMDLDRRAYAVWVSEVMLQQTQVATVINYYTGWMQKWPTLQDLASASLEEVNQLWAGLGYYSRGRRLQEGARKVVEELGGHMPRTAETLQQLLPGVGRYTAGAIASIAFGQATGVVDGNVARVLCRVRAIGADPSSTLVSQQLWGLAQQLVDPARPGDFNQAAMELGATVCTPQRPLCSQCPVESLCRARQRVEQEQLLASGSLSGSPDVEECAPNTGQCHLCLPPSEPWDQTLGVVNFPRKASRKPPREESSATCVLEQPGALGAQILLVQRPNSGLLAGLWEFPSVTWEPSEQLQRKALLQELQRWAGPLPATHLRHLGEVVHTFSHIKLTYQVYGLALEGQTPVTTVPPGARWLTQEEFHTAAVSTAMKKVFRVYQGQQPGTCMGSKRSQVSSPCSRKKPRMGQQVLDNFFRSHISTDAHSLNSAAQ
Description: Inhibition of MUTYH by quantifying inhibition of MUTYH-mediated cleavage and dissociation of quenched duplex DNA oligonucleotides, measured as fluorescence at 594 nm. To generate a functional strand incision and increase turn-over this assay is coupled to APE1.

Assay [7] concerns the target T4, Endonuclease 8-like 2 (Homo sapiens) (UniProt Q969S2).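 Further: fluorescence at 594 nm reports NEIL2 cutting and release of a quenched double-stranded DNA oligo substrate, reduced signal read as inhibition.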
T4 sequence (whole entry): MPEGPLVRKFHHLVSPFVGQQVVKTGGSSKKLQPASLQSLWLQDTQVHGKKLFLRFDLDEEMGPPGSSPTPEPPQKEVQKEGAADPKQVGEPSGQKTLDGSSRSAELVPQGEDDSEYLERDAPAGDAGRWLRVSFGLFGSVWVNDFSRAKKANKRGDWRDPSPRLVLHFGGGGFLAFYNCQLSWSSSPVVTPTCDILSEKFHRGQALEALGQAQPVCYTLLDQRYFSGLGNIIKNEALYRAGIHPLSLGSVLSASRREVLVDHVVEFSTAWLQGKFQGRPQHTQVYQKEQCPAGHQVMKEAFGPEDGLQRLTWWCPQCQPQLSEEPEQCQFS
Description: Inhibition of NEIL2 by quantifying inhibition of NEIL2-mediated cleavage and dissociation of quenched duplex DNA oligonucleotides, measured as fluorescence at 594 nm.

The target in assay [8] is DNA-3-methyladenine glycosylase (Homo sapiens) (UniProt P29372).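 Further: enzyme assay where MPG cuts a quenched duplex DNA oligonucleotide probe, paired with APE1 for strand incision and turnover, read as fluorescence at 594 nm.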
Chain of DNA-3-methyladenine glycosylase (Homo sapiens) (P29372 whole entry): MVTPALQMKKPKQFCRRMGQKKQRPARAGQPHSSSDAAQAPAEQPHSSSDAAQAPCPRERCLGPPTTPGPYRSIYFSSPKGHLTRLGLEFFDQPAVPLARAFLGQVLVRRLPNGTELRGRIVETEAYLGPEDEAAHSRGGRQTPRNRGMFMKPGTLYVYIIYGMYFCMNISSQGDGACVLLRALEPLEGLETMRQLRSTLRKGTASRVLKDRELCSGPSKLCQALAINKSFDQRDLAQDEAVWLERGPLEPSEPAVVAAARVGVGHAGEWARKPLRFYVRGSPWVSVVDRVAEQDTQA
Description: Inhibition of MPG by quantifying inhibition of MPG-mediated cleavage and dissociation of quenched duplex DNA oligonucleotides, measured as fluorescence at 594 nm. To generate a functional strand incision and increase turn-over this assay is coupled to APE1.
The target in assay [9] is Uracil-DNA glycosylase (Homo sapiens) (UniProt P13051).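 Further: UNG excision on a quenched double-stranded DNA oligo probe, with APE1 added for strand incision and turnover, read as fluorescence at 594 nm as strands separate.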
Chain of Uracil-DNA glycosylase (Homo sapiens) (P13051 whole entry): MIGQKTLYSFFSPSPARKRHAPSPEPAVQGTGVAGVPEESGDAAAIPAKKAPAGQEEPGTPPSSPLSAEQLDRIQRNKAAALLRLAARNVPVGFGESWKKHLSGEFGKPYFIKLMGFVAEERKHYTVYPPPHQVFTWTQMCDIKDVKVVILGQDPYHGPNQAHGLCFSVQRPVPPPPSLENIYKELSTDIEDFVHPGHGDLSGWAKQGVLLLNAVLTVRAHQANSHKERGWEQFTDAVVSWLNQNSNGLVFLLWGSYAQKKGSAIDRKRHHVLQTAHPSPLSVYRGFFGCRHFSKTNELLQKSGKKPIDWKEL
Description: Inhibition of UNG by quantifying inhibition of UNG-mediated cleavage and dissociation of quenched duplex DNA oligonucleotides, measured as fluorescence at 594 nm. To generate a functional strand incision and increase turn-over this assay is coupled to APE1.

Structures are written as SMILES.

The inhibition is the relative decrease from the control value, in per cent.

Chain of G/T mismatch-specific thymine DNA glycosylase (Homo sapiens) (Q13569 whole entry): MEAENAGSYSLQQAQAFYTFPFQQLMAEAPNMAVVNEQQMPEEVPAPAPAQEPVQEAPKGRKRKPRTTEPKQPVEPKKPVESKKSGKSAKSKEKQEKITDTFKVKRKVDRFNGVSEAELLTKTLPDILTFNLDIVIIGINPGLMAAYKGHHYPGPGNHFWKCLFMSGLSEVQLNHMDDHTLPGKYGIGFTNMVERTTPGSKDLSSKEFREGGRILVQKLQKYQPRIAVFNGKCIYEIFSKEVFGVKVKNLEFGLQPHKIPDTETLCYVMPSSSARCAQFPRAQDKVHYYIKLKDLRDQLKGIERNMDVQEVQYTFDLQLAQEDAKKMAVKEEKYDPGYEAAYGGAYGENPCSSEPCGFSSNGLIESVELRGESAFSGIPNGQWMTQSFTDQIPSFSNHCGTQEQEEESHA

With `CC[C@H](NC(=O)c1c(C)c(-c2ccccc2)nc2ccccc12)c1ccccc1`, the inhibition in assay [1] was -0.0333%; in assay [2], -2.42%; in assay [3], -0.204%; in assay [4] it was -1.61%; in assay [5] it was 9.25%; in assay [6], 0.0213%. For the same molecule, the inhibition is -1.98% in [7], 4.04% in [8] and -6.75% in assay [9].
In the case of `C[C@@H](NCCc1ccc(O)cc1)[C@@H](O)c1ccc(O)cc1` (relative stereo), the inhibition in assay [2] is 5%; in assay [3], -5.25%; in assay [4], -4.18%; in assay [5], 17.3%; in assay [6], 11.7%; in [7] it was 6.25%. The inhibition in [8] is -3.37%.
As to `CCC(=O)OCC(=O)[C@@]1(OC(=O)CC)[C@@H](C)C[C@H]2[C@@H]3CCC4=CC(=O)C=C[C@]4(C)[C@@]3(Cl)[C@@H](O)C[C@@]21C`, the inhibition in assay [2] is -4.42%; in assay [3] it was 7.21%; in [4], -5.93%; in assay [5], 22.4%; in assay [6], 11.3%; in [7], 7%. Moreover, the inhibition in [8] turned out to be 2.96%.
As to `O=C(Nc1cc(C(F)(F)F)cc(C(F)(F)F)c1)c1cc(Cl)ccc1O`, the inhibition was 4.73% in assay [1]; 1.2% in assay [3]; 28.6% in assay [4]; 6.35% in assay [5]; -9.19% in assay [6]; -3.41% in [7]. Also, the inhibition was 9.82% in assay [8] and -1.16% in [9].
On to `COc1ccc(C2(O)OC(=O)C(c3ccc4c(c3)OCO4)=C2Cc2cc(OC)c(OC)c(OC)c2)cc1` (stereo unspecified), for which the inhibition was 8.23% in assay [2]; -4.95% in assay [3]; -9.68% in assay [4]; 15.1% in assay [5]; 22.7% in [6]; 13.2% in [8]. Further, the inhibition in assay [9] is -1.01%.
`c1ccc2c(c1)CCC[C@H]2Nc1nc2ccccc2[nH]1`: the inhibition was -5.61% in assay [1]; 8.8% in assay [2]; 4.46% in assay [3]; 1.89% in assay [4]; 4.7% in assay [5]; 2.96% in assay [6]. In addition, the inhibition in assay [7] was 3.47%; in assay [8] it was 9.2%; in [9], -4.72%.
Regarding `CC(C)c1ccc(CC(=O)N[C@H](C)c2ccc(OCC(F)(F)F)cn2)cc1`, the inhibition is 4.45% in assay [1]; -9.7% in [2]; 3.42% in assay [3]; -4.46% in assay [4]; 8% in [5]; -5.06% in [6]. Also, the inhibition in assay [7] is -3.66%; in [8] it was 9.35%; in [9] it was -0.689%.
With `NC(=O)c1ccc(CNC(=O)NC[C@H]2CN(Cc3ccc(Cl)c(Cl)c3)CCO2)cc1`, the inhibition is 19.2% in assay [2]; 7.06% in assay [3]; -7.25% in assay [4]; 15.8% in assay [5]; 5.52% in [6]; 16.2% in assay [7]. Besides, the inhibition in assay [8] is -0.36%.
`O=C(Nc1cccc(C(F)(F)F)c1)c1cc(Cl)ccc1O`: the inhibition was 0.608% in assay [1]; 4.24% in assay [2]; -4.58% in assay [3]; -6.43% in [4]; 5.52% in assay [5]; 0.595% in assay [6]. Also, the inhibition is -5.45% in [7], 23.5% in assay [8] and -2.86% in assay [9].
`O=c1ccn([C@@H]2O[C@H](COP(=O)(O)OP(=O)(O)OP(=O)(O)OP(=O)(O)OC[C@H]3O[C@@H](n4ccc(=O)[nH]c4=O)[C@H](O)[C@@H]3O)[C@@H](O)[C@H]2O)c(=O)[nH]1`: the inhibition was 3.7% in [2]; 3.21% in [3]; -1.8% in assay [4]; 20.2% in assay [5]; -6.25% in assay [6]; -3.48% in assay [7]. Moreover, in assay [8], the inhibition is 0.18%.
As for `CN(C)CC[C@@H](c1ccc(Cl)cc1)c1ccccn1`, the inhibition in assay [2] was 6.86%; in assay [3], -2.28%; in [4] it was -3.11%; in [5] it was 6.32%; in assay [6], 11.5%; in [7], 12%. Further, the figures for the inhibition in assay [8] and in assay [9] were 0.18% and -8.86%, respectively.
On to `Cc1cnc(-c2cc(N3CCN(C(=O)CCS(C)(=O)=O)CC3)ncc2Cl)c(C)c1`, for which the inhibition is -3.06% in [4]; 15.8% in assay [5]; 0.917% in [6]; -4.23% in [7]; -9.96% in assay [8].
Consider `CC(C)NCC(O)c1ccc(N)c(C#N)c1` (stereo unspecified), for which the inhibition is -9.04% in assay [1]; -4.14% in assay [2]; -4.21% in assay [3]; -2.67% in [4]; 12.9% in assay [5]; 4.24% in assay [6]. Moreover, the inhibition in assay [7] was -8.72%; in assay [8], 0.373%.
Take `Cc1ccccc1-c1cc(N2CCN(C)CC2)ncc1N(C)C(=O)C(C)(C)c1cc(C(F)(F)F)cc(C(F)(F)F)c1`: the inhibition in assay [2] was -5.37%; in assay [3], 0.537%; in assay [4] it was -7.29%; in assay [5] it was 21.7%; in assay [6], -1.13%; in [7], 1.76%. For the same molecule, in [8], the inhibition was -7.15%.
With `C/N=C(/NC#N)NCCSCc1csc(NC(=N)N)n1`, the inhibition in [1] was -3.81%; in [2], 1.2%; in [3], -6.13%; in [4], -8.12%; in assay [5], -9.8%; in assay [6], -6.76%. Further, the inhibition in assay [8] is -5.07%.
As for `O=C(O)C1CN(Cc2ccc(-c3nc4cc(Cc5ccccc5F)ccc4s3)c(F)c2)C1`, the inhibition in assay [2] was -3.37%; in assay [3], -0.945%; in assay [4] it was -3.25%; in [5], 11.4%; in assay [6], -0.363%; in [7], -3.48%. Besides, the inhibition in assay [8] is -8.77%.
Turning to `Cc1ccc(S(=O)(=O)Nc2ccc(-n3nc(C(F)(F)F)cc3C(F)(F)F)cc2)cc1`, the inhibition in assay [1] was 19.1%; in [3], 3.57%; in assay [4], 21.7%; in assay [5], 16.2%; in assay [6], -4.85%; in assay [7] it was 5%. The results for the inhibition in assay [8] and in assay [9] were 20% and -1.93%, respectively.
Take `Cc1ccc(O)c([C@H](CCN(C(C)C)C(C)C)c2ccccc2)c1`: the inhibition in assay [2] was 2.93%; in [3], 5.28%; in assay [4] it was -3.4%; in assay [5] it was -3.21%; in assay [6] it was 8.6%; in [7] it was 2.01%. The inhibition in assay [8] is -5.07%.

The record behind these values is ChEMBL document CHEMBL5665443, “Enzyme Inhibitor Single Concentration assay results for EUbOPEN Chemogenomics Library” (2024).
